Results from PubChem BioAssay AID248 (DTP/NCI, 2004).
Values joined by “and” are separate entries in the source; they are usually repeats but may differ in a detail not shown here. Equal entries are not always repeated. Inconclusive results and toxic doses are left out. No stated cut-off is given here; in the data, active means T/C of 150% or more; inactive means T/C below 125%.

Tested on: L1210 leukemia ip in BDF1 mice, survival T/C
Test: NCI In Vivo Anticancer Drug Screen. Data for tumor model L1210 Leukemia (intraperitoneal) in B6D2F1 (BDF1) mice
Conditions: endpoint: mean survival time, higher = longer survival
How it was run: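 Ratio derived from survival: compound-dosed mice over vehicle-dosed mice, all bearing a transplantable tumor.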

[1] = dose: 50.0 mg/kg/injection, schedule: Q01DX009 (ip), vehicle: Klucel (hydroxypropylcellulose) (HPC)
[2] = dose: 100.0 mg/kg/injection, schedule: Q01DX009 (ip), vehicle: Klucel (hydroxypropylcellulose) (HPC)
[3] = dose: 100.0 mg/kg/injection, schedule: Q04DX003 (ip), vehicle: Klucel (hydroxypropylcellulose) (HPC)
[4] = dose: 200.0 mg/kg/injection, schedule: Q04DX003 (ip), vehicle: Klucel (hydroxypropylcellulose) (HPC)
[5] = dose: 100.0 mg/kg/injection, schedule: Q01DX001 (ip), vehicle: saline with Tween-80
[6] = dose: 100.0 mg/kg/injection, schedule: Q01DX009 (ip), vehicle: saline with Tween-80
[7] = dose: 200.0 mg/kg/injection, schedule: Q01DX001 (ip), vehicle: saline with Tween-80
[8] = dose: 200.0 mg/kg/injection, schedule: Q01DX009 (ip), vehicle: saline with Tween-80
[9] = dose: 400.0 mg/kg/injection, schedule: Q01DX001 (ip), vehicle: saline with Tween-80
[10] = dose: 400.0 mg/kg/injection, schedule: Q01DX009 (ip), vehicle: saline with Tween-80
[11] = dose: 100.0 mg/kg/injection, schedule: Q01DX001 (ip), vehicle: saline
[12] = dose: 200.0 mg/kg/injection, schedule: Q01DX001 (ip), vehicle: saline
[13] = dose: 400.0 mg/kg/injection, schedule: Q01DX001 (ip), vehicle: saline
[14] = dose: 100.0 mg/kg/injection, schedule: Q04DX003 (ip), vehicle: saline
[15] = dose: 200.0 mg/kg/injection, schedule: Q04DX003 (ip), vehicle: saline
[16] = dose: 400.0 mg/kg/injection, schedule: Q04DX003 (ip), vehicle: saline
[17] = dose: 100.0 mg/kg/injection, schedule: Q01DX001 (ip), vehicle: carboxymethylcellulose (CMC)
[18] = dose: 200.0 mg/kg/injection, schedule: Q01DX001 (ip), vehicle: carboxymethylcellulose (CMC)
[19] = dose: 400.0 mg/kg/injection, schedule: Q01DX001 (ip), vehicle: carboxymethylcellulose (CMC)
[20] = dose: 200.0 mg/kg/injection, schedule: Q01DX009 (ip), vehicle: Klucel (hydroxypropylcellulose) (HPC)
[21] = dose: 100.0 mg/kg/injection, schedule: Q04DX003 (ip), vehicle: saline with Tween-80

Measured: T/C

c1ccc(-n2cc(-c3nc(N4CC4)nc(N4CC4)n3)c3ccccc32)cc1
inactive: [1] 121 % of control | [2] 103 % of control | [3] 112 % of control | [4] 118 % of control

CC(=O)Nc1ccc(O)c2ccccc12
inactive: dose: 100.0 mg/kg/injection, schedule: Q04DX002 (ip), vehicle: Klucel (hydroxypropylcellulose) (HPC) 92 % of control | dose: 200.0 mg/kg/injection, schedule: Q04DX002 (ip), vehicle: Klucel (hydroxypropylcellulose) (HPC) 89 % of control | dose: 400.0 mg/kg/injection, schedule: Q04DX002 (ip), vehicle: Klucel (hydroxypropylcellulose) (HPC) 99 % of control

CCOC(=O)c1cnc(SC)nc1Oc1ccccc1Cl
inactive: [5] 96 % of control | [6] 98 % of control | [7] 97 % of control | [8] 96 % of control | [9] 97 % of control | [10] 93 % of control

O=C1NC(=S)SC1C(Cc1ccccc1)Cc1ccccc1 (stereo not given)
inactive: [11] 97 % of control | [12] 97 % of control | [13] 101 % of control

O=C1CC(C(=O)O)C(C(=O)O)O1 (stereo not given)
inactive: dose: 50.0 mg/kg/injection, schedule: Q01DX001 (ip), vehicle: saline 97 % of control | dose: 75.0 mg/kg/injection, schedule: Q01DX001 (ip), vehicle: saline 101 % of control | [11] 92 % of control | dose: 150.0 mg/kg/injection, schedule: Q01DX001 (ip), vehicle: saline 97 % of control | [12] 90 % of control

CC(C)(C)N1CC(C(=O)O)C1
inactive: [11] 97 % of control | [12] 103 % of control | [13] 97 % of control

CC1(C)/C(=C\C(=O)O)C2C=CC1C2 (stereo not given)
inactive: [11] 94 % of control | dose: 100.0 mg/kg/injection, schedule: Q01DX009 (ip), vehicle: acetone 86 % of control | [14] 114 % of control | [12] 101 % of control | dose: 200.0 mg/kg/injection, schedule: Q01DX009 (ip), vehicle: acetone 91 % of control | [15] 106 % of control | [13] 100 % of control | [16] 102 % of control

O=C(NCCCl)NC1CS(=O)(=O)CS(=O)(=O)C1
inactive: dose: 75.0 mg/kg/injection, schedule: Q01DX001 (ip), vehicle: other 104 % of control

CCOC(=O)Nc1cc(NCC(O)CN(C)c2ccccc2)c([N+](=O)[O-])c(N)n1 (stereo not given)
inactive: [17] 95 % of control | [18] 95 % of control | [19] 92 % of control

O=C(Nc1cc([N+](=O)[O-])ccc1F)N(C1CCCCC1)C1CCCCC1
inactive: [3] 87 % of control | [4] 96 % of control | dose: 400.0 mg/kg/injection, schedule: Q04DX003 (ip), vehicle: Klucel (hydroxypropylcellulose) (HPC) 104 % of control

Cn1c[n+](C)ccc1=O
inactive: dose: 100.0 mg/kg/injection, schedule: Q01DX009 (ip), vehicle: water 87 % of control | dose: 100.0 mg/kg/injection, schedule: Q04DX003 (ip), vehicle: water 111 % of control | dose: 200.0 mg/kg/injection, schedule: Q01DX009 (ip), vehicle: water 104 % of control | dose: 200.0 mg/kg/injection, schedule: Q04DX003 (ip), vehicle: water 106 % of control | dose: 400.0 mg/kg/injection, schedule: Q04DX003 (ip), vehicle: water 111 % of control

Cc1ccc(OC/C=C/CSc2ccc(Br)cc2)cc1
inactive: [1] 103 % of control | dose: 75.0 mg/kg/injection, schedule: Q01DX001 (ip), vehicle: Klucel (hydroxypropylcellulose) (HPC) 106 % of control | [2] 100 % of control | dose: 150.0 mg/kg/injection, schedule: Q01DX001 (ip), vehicle: Klucel (hydroxypropylcellulose) (HPC) 104 % of control | [20] 102 % of control | dose: 300.0 mg/kg/injection, schedule: Q01DX001 (ip), vehicle: Klucel (hydroxypropylcellulose) (HPC) 98 % of control

N#Cc1ncc(C(Cl)(Cl)Cl)nc1Cl
inactive: dose: 25.0 mg/kg/injection, schedule: Q01DX009 (ip), vehicle: saline with Tween-80 103 % of control | dose: 25.0 mg/kg/injection, schedule: Q04DX003 (ip), vehicle: saline with Tween-80 100 % of control | dose: 50.0 mg/kg/injection, schedule: Q01DX009 (ip), vehicle: saline with Tween-80 105 % of control | dose: 50.0 mg/kg/injection, schedule: Q04DX003 (ip), vehicle: saline with Tween-80 100 % of control | [6] 105 % of control and 108 % of control | [21] 106 % of control | [8] 103 % of control | [10] 110 % of control

COC(=O)c1ccc(N(C)CC/C(CN)=N/NC(N)=O)cc1
inactive: [17] 96 % of control | [18] 96 % of control | [19] 102 % of control

CC12CCC3=C(CCc4cc(O)ccc43)C1CCC2=O (stereo not given)
inactive: dose: 75.0 mg/kg/injection, schedule: Q01DX001 (ip), vehicle: steriod suspending solution 91 % of control | dose: 150.0 mg/kg/injection, schedule: Q01DX001 (ip), vehicle: steriod suspending solution 96 % of control | dose: 300.0 mg/kg/injection, schedule: Q01DX001 (ip), vehicle: steriod suspending solution 101 % of control

CCOP(=O)(CSCCc1ccccc1)OCC
inactive: [14] 92 % of control | [15] 103 % of control

O=CC(C(O)C(O)C(O)CO)N1CCN(C(C=O)C(O)C(O)C(O)CO)CC1 (stereo not given)
inactive: dose: 50.0 mg/kg/injection, schedule: Q04DX002 (ip), vehicle: saline 95 % of control | dose: 100.0 mg/kg/injection, schedule: Q04DX002 (ip), vehicle: saline 107 % of control | dose: 200.0 mg/kg/injection, schedule: Q04DX002 (ip), vehicle: saline 107 % of control

CN=C(C)C1=C(O)C(CC(=O)OC)N(C)C1=O (stereo not given)
inactive: [14] 103 % of control | [15] 102 % of control | [16] 96 % of control

O=C1C=CC(=O)N1c1nccs1
inactive: [21] 95 % of control | dose: 200.0 mg/kg/injection, schedule: Q04DX003 (ip), vehicle: saline with Tween-80 90 % of control | dose: 400.0 mg/kg/injection, schedule: Q04DX003 (ip), vehicle: saline with Tween-80 95 % of control

COC(=O)C1=C(\N2CCCC2)CCCCC/C=C\1C(=O)OC
inactive: dose: 75.0 mg/kg/injection, schedule: Q01DX009 (ip), vehicle: saline with Tween-80 97 % of control | dose: 150.0 mg/kg/injection, schedule: Q01DX009 (ip), vehicle: saline with Tween-80 103 % of control | dose: 300.0 mg/kg/injection, schedule: Q01DX009 (ip), vehicle: saline with Tween-80 107 % of control

NOc1ccc([N+](=O)[O-])cc1[N+](=O)[O-]
inactive: [21] 108 % of control

COc1cc2c(cc1OC)-c1oncc1CCC2
inactive: [17] 95 % of control | [18] 106 % of control | [19] 88 % of control

CC(=O)OC1CCC2(C)C(CCC3(C)C2CC=C2C4=C(CCC(C)(C)C4=O)CCC23C)C1(C)C (stereo not given)
inactive: [14] 102 % of control | [15] 100 % of control | [16] 92 % of control

O=C1CCC23/C=C/C(=O)NCCCCNCCCNC(=O)/C=C/c4ccc(c2c4)OC3C1 (stereo not given)
inactive: [5] 101 % of control | [7] 95 % of control | [9] 91 % of control

NC(CO)C(O)c1ccc(N=Nc2ccc(O)cc2)cc1 (stereo not given)
inactive: [21] 90 % of control

O=C1CC(c2ccccc2)=NCCN1
inactive: [2] 97 % of control | [20] 95 % of control | dose: 400.0 mg/kg/injection, schedule: Q01DX009 (ip), vehicle: Klucel (hydroxypropylcellulose) (HPC) 114 % of control

O=[N+]([O-])/C=C/c1ccccc1Br
inactive: dose: 18.75 mg/kg/injection, schedule: Q04DX003 (ip), vehicle: Klucel (hydroxypropylcellulose) (HPC) 96 % of control | dose: 37.5 mg/kg/injection, schedule: Q04DX003 (ip), vehicle: Klucel (hydroxypropylcellulose) (HPC) 102 % of control | dose: 75.0 mg/kg/injection, schedule: Q04DX003 (ip), vehicle: Klucel (hydroxypropylcellulose) (HPC) 104 % of control
